Source: patent publication US10683546B2, “Kit for predicting treatment with glucocorticoids and method comprising the same” (UNIVERSIDAD DE CHILE, priority 2015, dated 2020)
“And” between values parts separate entries of the source, which are not always exact repeats. Equal values may be shown once.

Test system: GRα mRNA levels in PBMC
Assay: Fold change ratio of GRα mRNA levels in PBMC of VKH patients after two weeks of prednisone (GC) treatment, RT-qPCR
Format: in vivo, human
Details: for Fold change ratio of GR levels in PBMC: after two weeks of Prednisone treatment vs baseline, oral 1 mg/Kg/day, 1 mg/kg/day; for GRα mRNA fold change median / GRα mRNA fold change range: two weeks of systemic GC therapy vs baseline
Procedure: 1) Obtainment of a 10-100 ml blood sample—preferably collected in the morning by automatic aspiration (vacutainer®) or manual (disposable syringe) methods. As an alternative or complementarily, the affected tissue or cell type may be completely or partially removed in order to carry out measurements.
2) After obtaining the sample, peripheral mononuclear cells (PBMC) are procured by the Ficoll gradient method, where a hydrophilic polysaccharide allows separating blood components into plasma, PBMC and erythrocytes. Alternatively or complementarily, the isolation of specific cell sub-types, such as CD4+, CD14+, CD8+cells, among others, may be conducted using a strategy based on magnetic microbeads or cell sorting by flow cytometry.
3) Subsequently, total RNA is extracted (Life Technologies, Inc.) by the TRIZOL method. For the obtainment of cDNA, 0.5 to 2 μg RNA is used as a template. Reverse transcription is performed preferably with kit ImProm-II™ Reverse Transcription System (Promega): a reaction mixture is prepared with 0.5 to 2 μg RNA, 1 μL Random Hexamers, 4 μL 5× ImProm-II™ RT buffer up to a final 20 μL volume, which is then incubated at 70° C. for 5 minutes, 4° C. for 5 minutes, 25° C. for 5 minutes, 42° C. for 60 minutes and 25° C. for 5 minutes.
4) cDNA is amplified using primers specific for GRα isoform: 5′-[…]-3′ (sense, SEQ ID NO: 1) and 5′-[…]-3′ (antisense, SEQ ID NO: 2) that correspond to nucleotides 2158-2178 and 2616-2635 of GRα cDNA.
5) For the amplification, a cDNA polymerase is used, preferably, the enzyme Go Taq® Flexi DNA Polymerase (Promega), starting the reaction with an initial 5 minute incubation at 95° C., followed then by 30 cycles as detailed: 95° C. for 30 seconds, 60° C. for 30 seconds and 72° C. for 30 seconds. For quantification by Real-Time qPCR a fluorophore is used, using preferably SYBR Green as fluorophore. GR measurements are made in duplicate. Finally, the results are standardized according to the expression of 18s rDNA gene that codes for the 18s ribosomal subunit.
6) Repetition of GRα mRNA level assessment according to the described protocol is carried out two weeks after initiating GC treatment. An increase is observed in GRα expression in sensitive patients and a reduction of the same in resistant patients (median of 5.5 versus 0.7, respectively).
7) Calculation of fold change ratio in GRα mRNA levels between the initial assessment and a later assessment after 2 weeks of GC treatment. GR fold change ratio=GR mRNA-2 weeks/GR mRNA at baseline
The method described in the present invention has been assessed in a group of 21 patients with Vogt-Koyanagi-Harada (VKH) disease, a specific uveitis subtype.
Cases: 13 patients affected by VKH with an inadequate response to oral treatment with 1 mg/Kg/day prednisone, in two separate doses, ⅔ of the daily dose in the morning and ⅓ of the dose in the afternoon.
Controls: 8 patients affected by VKH with an adequate response to the oral treatment with 1 mg/Kg/day prednisone, in two separate doses, ⅔ of the daily dose in the morning and ⅓ of the dose in the afternoon.
An analysis was conducted on the fold change ratio of GR transcript expression two weeks after treatment initiation, in comparison with baseline levels (prior to treatment initiation), segregating in accordance with the clinical response during follow-up. To calculate this fold change ratio, an arithmetic operation is conducted, that consists in dividing the GR levels obtained two weeks after the treatment and the baseline or initial GR levels. GR fold change ratio=GR mRNA-2 weeks/GR mRNA at baseline

[1] = patients clinically sensitive to GC

C[C@]12C=CC(=O)C=C1CC[C@@H]1[C@@H]2C(=O)C[C@@]2(C)[C@H]1CC[C@]2(O)C(=O)CO [Prednisone, prednisone]
Fold change ratio of GR levels in PBMC (individual patients with Vogt-Koyanagi-Harada disease clinically Resistant to GC): 0.667 and 0.225 and 0.243 and 0.841 and 0.759
Fold change ratio of GR levels in PBMC (individual patients with Vogt-Koyanagi-Harada disease clinically Sensitive to GC): 5.21 and 8.49 and 2.53 and 0.237 and 17.8 and 15 and 5.52
GRα mRNA fold change median [1]: 5.5
GRα mRNA fold change range [1]: 0.23-17.8
GRα mRNA fold change median (patients resistant to GC): 0.7
GRα mRNA fold change range (patients resistant to GC): 0.22-0.84
